# Data: US10202413B2, “Neuroactive enantiomeric 15-, 16- and 17-substituted steroids as modulators for GABA type-A receptors” (priority 2013, dated 2019)
# Like-named read-outs stand apart in the source and are kept apart here. Marks after values point to notes of the source that are not given here.
# Key:
# Tadpole = Tadpole loss of righting (LRR) and loss of swimming (LSR) reflexes; assay type: in vivo; conditions: for EC50: ± SEM; for tadpoles that lost LRR / tadpoles that lost LSR: concentration of 3 μM, number of 10 tadpoles
# From the text: Table 3 discloses the anesthetic effects of the compounds of the present disclosure. In particular, the anesthetic effect of the compounds of the present disclosure on Loss of Righting Reflex (LRR) and Loss of Swimming Reflex (LSR).
# Methods used are known in the art (see, e.g., Jiang, et al., Neurosteroid analogues. 9. Conformationally constrained pregnanes: structure-activity studies of 13,24-cyclo-18,21-dinorcholane analogues of the GABA modulatory and anesthetic steroids (3α,5α)- and (3α,5β)-3-hydroxypregnan-20-one. J. Med. Chem. 2003, 46, 5334-5348). Error limits are calculated as standard error of the mean (N=10 or more animals at each of five or more different concentrations).
# [1] = target: T1, rat α1β2γ2L type GABAA receptors expressed in Xenopus laevis oocytes (Rattus norvegicus, UniProt P18508+P62813+P63138, INS375LLRMFSFK); experiment: Oocyte electrophysiology: potentiation of chloride currents mediated by 2 μM GABA, and direct gating; assay type: cell-based; conditions: ± SEM (N≥4); for ratio of currents measured in the presence/absence of added compound, 0.1 μM: 0.1 μM compound; for ratio of currents measured in the presence/absence of added compound, 0.1 μM / ratio of currents measured in the presence/absence of added compound, 1.0 μM / ratio of currents measured in the presence/absence of added compound, 10 μM: 2 μM GABA; for ratio of currents measured in the presence/absence of added compound, 1.0 μM: 1.0 μM compound; for ratio of currents measured in the presence/absence of added compound, 10 μM: 10 μM compound; for (gating) 10 μM: ratio of compound only current/GABA current: direct current gated by 10 μM compound in the absence of GABA
# T1 construct: expressed in transfected cells; host or cells: Xenopus laevis oocytes
# Description: The compounds of the present disclosure were evaluated for the ability to potentiate chloride currents mediated by 2 μM GABA at rat α1β2γ2L type GABAA receptors expressed in Xenopus laevis oocytes and the results are shown in Table 2.
# The GABA concentration used for the control response was 2 μM. Each compound was evaluated on at least four different oocytes at the concentrations indicated, and the results reported are the ratio of currents measured in the presence/absence of added compound. Gating represents direct current gated by 10 μM compound in the absence of GABA, and this current is reported as the ratio of compound only current/[…] current. Error limits are calculated as standard error of the mean (N≥4). Receptor expression and whole-cell and single-channel recordings were carried out as described previously (see Jiang, et al., Neurosteroid analogues. 9. Conformationally constrained pregnanes: structure-activity studies of 13,24-cyclo-18,21-dinorcholane analogues of the GABA modulatory and anesthetic steroids (3α,5α)- and (3α,5β)-3-hydroxypregnan-20-one. J. Med. Chem. 2003, 46, 5334-5348).
# [2] = target: picrotoxin binding site on GABAA receptors; experiment: [35S]-TBPS displacement (inhibition of [35S]-TBPS binding); conditions: non-competitive displacement of [35S]-TBPS; ± standard error of the mean
# Description: The IC50 values for the compounds of the examples as non-competitive displacers of [^35S]-TBPS from the picrotoxin binding site on GABAA receptors are reported in Table 1.
# Results presented are from duplicate experiments performed in triplicate. Error limits are calculated as standard error of the mean. Methods used are known in the art (see, e.g., Jiang, et al., Neurosteroid analogues. 9. Conformationally constrained pregnanes: structure-activity studies of 13,24-cyclo-18,21-dinorcholane analogues of the GABA modulatory and anesthetic steroids (3α,5α)- and (3α,5β)-3-hydroxypregnan-20-one. J. Med. Chem. 2003, 46, 5334-5348).
# [3] = loss of righting reflex, read-out: Tadpole LRR EC50
# [4] = loss of swimming reflex, read-out: Tadpole LSR EC50
# T1 sequence (P62813 28-455, stated change not applied): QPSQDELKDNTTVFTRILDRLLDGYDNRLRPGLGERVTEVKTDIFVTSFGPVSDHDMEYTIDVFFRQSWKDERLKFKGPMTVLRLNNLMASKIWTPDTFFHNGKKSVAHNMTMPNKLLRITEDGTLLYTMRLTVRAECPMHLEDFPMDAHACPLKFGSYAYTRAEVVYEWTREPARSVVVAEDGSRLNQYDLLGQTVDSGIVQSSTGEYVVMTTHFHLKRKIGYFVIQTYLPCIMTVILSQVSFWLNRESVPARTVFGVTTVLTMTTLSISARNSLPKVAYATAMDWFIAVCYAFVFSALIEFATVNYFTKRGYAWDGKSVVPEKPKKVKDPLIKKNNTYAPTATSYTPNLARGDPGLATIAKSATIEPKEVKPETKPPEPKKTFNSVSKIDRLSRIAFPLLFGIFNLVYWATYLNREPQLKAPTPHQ
# T1 sequence (P63138 26-474, stated change not applied): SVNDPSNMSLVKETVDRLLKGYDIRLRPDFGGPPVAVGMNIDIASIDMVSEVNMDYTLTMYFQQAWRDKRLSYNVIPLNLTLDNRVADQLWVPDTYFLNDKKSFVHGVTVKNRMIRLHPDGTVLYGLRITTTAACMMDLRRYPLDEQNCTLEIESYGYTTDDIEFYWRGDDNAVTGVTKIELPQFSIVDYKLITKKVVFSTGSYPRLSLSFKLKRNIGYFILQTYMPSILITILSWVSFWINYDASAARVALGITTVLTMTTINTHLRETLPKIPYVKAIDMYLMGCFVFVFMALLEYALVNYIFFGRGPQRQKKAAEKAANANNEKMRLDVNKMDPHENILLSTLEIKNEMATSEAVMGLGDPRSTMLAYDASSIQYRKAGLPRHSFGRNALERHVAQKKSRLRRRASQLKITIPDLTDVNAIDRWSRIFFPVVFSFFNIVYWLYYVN
# T1 sequence (P18508 with tags, fused parts or gaps INS375LLRMFSFK): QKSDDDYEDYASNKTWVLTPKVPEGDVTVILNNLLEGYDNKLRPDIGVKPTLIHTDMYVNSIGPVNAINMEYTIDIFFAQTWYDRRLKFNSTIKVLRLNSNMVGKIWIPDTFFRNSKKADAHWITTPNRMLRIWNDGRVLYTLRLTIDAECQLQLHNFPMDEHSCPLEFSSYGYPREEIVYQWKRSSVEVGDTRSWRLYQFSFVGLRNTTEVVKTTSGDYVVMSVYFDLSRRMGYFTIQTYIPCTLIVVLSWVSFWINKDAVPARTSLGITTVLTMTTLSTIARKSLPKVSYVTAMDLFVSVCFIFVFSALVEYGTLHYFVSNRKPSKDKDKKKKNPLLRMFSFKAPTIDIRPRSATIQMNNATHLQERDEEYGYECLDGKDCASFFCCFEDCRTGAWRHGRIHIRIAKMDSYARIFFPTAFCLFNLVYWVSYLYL
SMILES,melting point,EC50 (Tadpole; [3]),EC50 (Tadpole; [4]),"ratio of currents measured in the presence/absence of added compound, 0.1 μM [1]","ratio of currents measured in the presence/absence of added compound, 1.0 μM [1]","ratio of currents measured in the presence/absence of added compound, 10 μM [1]",(gating) 10 μM: ratio of compound only current/GABA current [1],IC50 [2],tadpoles that lost LRR (Tadpole),tadpoles that lost LSR (Tadpole)
O=C1C[C@@H]2CC[C@@H]3[C@H](CC[C@@H]4C[C@@H](O)CC[C@H]43)[C@H]2C1,168 to 169 °C,,,,,,,,,
"C[C@@]12CC[C@H]3[C@@H]4CC[C@H](O)C[C@H]4CC[C@@H]3[C@H]1CCC2=O [KK-18, (3β,5β,8α,9β,10α,13α,14β)-3-Hydroxyestran-17-one]",,3200 ± 2030 nM,> 10000 nM,1.07 ± 0.05,1.64 ± 0.11,9.34 ± 1.36,0.13 ± 0.12,627 ± 100 nM,,
"C[C@]1(O)CC[C@]2(C)[C@H](CC[C@H]3[C@H]2CC[C@@]2(C)C(=O)CC[C@H]32)C1 [KK-23, (3β,5β,8α,9β,10α,13α,14β)-3-Hydroxy-3-methylandrostan-17-one]",183 to 185 °C,930 ± 530 nM,2810 ± 10 nM,1.11 ± 0.15,3.31 ± 0.43,19.74 ± 5.64,0.09 ± 0.02,185 ± 28 nM,,
"C[C@]1(O)CC[C@]2(C)[C@@H](CC[C@H]3[C@H]2CC[C@@]2(C)C(=O)CC[C@H]32)C1 [KK-26, (3β,5α,8α,9β,10α,13α,14β)-3-Hydroxy-3-methylandrostan-17-one]",,1880 nM,5480 ± 200 nM,1.38 ± 0.10,5.10 ± 0.64,23.74 ± 2.88,0.49 ± 0.18,290 ± 33 nM,,
"C[C@@]12CC[C@@H]3[C@H](CC[C@H]4C[C@@H](O)CC[C@]43C)[C@H]1CC(=O)C2 [KK-97, (3β,5α,8α,9β,10α,13α,14β)-3-Hydroxyandrostan-16-one]",132 to 134 °C,490 ± 110 nM,1730 ± 30 nM,1.75 ± 0.24,6.15 ± 0.41,30.62 ± 2.14,0.16 ± 0.04,112 ± 7 nM,,
C[C@@]12CC[C@H]3[C@@H]4CC[C@H](O)C[C@@H]4CC[C@@H]3[C@H]1CC(=O)C2 [KK-102],139 to 142 °C,1210 ± 420 nM,5480 ± 120 nM,1.20 ± 0.02,4.23 ± 0.24,13.91 ± 1.38,0.04 ± 0.0,146 ± 18 nM,,
C[C@@]12CC[C@H]3[C@@H]4CC[C@H](O)C[C@H]4CC[C@@H]3[C@H]1CC(=O)C2 [KK-103],160 to 162 °C,1160 ± 210 nM,5480 ± 120 nM,0.97 ± 0.02,2.43 ± 0.02,10.52 ± 0.61,0.02 ± 0.01,238 ± 21 nM,,
C[C@@]12CC[C@H](O)C[C@H]1CC[C@@H]1[C@H]3CC(=O)C[C@@H]3CC[C@H]12 [KK-114],174 to 177 °C,3640 ± 2170 nM,> 10000 nM,0.93 ± 0.02,1.13 ± 0.02,3.56 ± 0.15,0.01 ± 0.02,1520 nM,,
"CO[C@H]1[C@H]2CC[C@H]3[C@@H](CC[C@@]4(C)C(=O)CC[C@H]34)[C@]2(C)CC[C@@H]1O [KK-117, (3β,4α,5β,8α,9β,10α,13α,14β)-3-Hydroxy-4-methoxyandrostan-17-one]",215 to 218 °C,590 ± 70 nM,2940 nM,1.21 ± 0.02,3.67 ± 0.33,12.21 ± 1.26,0.05 ± 0.03,198 ± 25 nM,,
"CO[C@@H]1C[C@@H]2[C@H]3CC[C@@H]4C[C@@H](O)CC[C@@]4(C)[C@@H]3CC[C@@]2(C)C1 [KK-134, (3β,5β,8α,9β,10α,13α,14β,16α)-16-Methoxyandrostan-3-ol]",169 to 171 °C,,,1.16 ± 0.07,5.22 ± 1.09,8.27 ± 1.27,0.04 ± 0.05,92 ± 9 nM,10/10^a,10/10^a
"CC(=O)[C@@H]1C[C@@H]2[C@H]3CC[C@@H]4C[C@@H](O)CC[C@@]4(C)[C@@H]3CC[C@@]2(C)C1 [KK-135, (3β,5β,8α,9β,10α,13α,14β,16α)-16-Acetylandrostan-3-ol]",169 to 172 °C,,,1.17 ± 0.09,3.26 ± 0.31,6.21 ± 0.31,−0.04 ± 0.06,184 ± 11 nM,10/10^a,10/10^a
"C[C@@]12CC[C@H](O)C[C@@H]1CC[C@H]1[C@H]2CC[C@@]2(C)C=C(C#N)C[C@H]12 [KK-136, (3β,5α,8α,9β,10α,13α,14β)-3-Hydroxyandrost-16-ene-16-carbonitrile]",195 to 197 °C,480 ± 20 nM,1730 ± 30 nM,0.98 ± 0.02,1.98 ± 0.14,10.04 ± 1.26,0.29 ± 0.25,335 ± 27 nM,,
"C[C@@]12CC[C@@H]3[C@H](CC[C@H]4C[C@@H](O)CC[C@]43C)[C@H]1C[C@@H](C#N)C2 [KK-137, (3β,5α,8α,9β,10α,13α,14β,16α)-3-Hydroxyandrost-16-carbonitrile]",155 to 157 °C,130 nM,550 ± 10 nM,2.32 ± 0.17,7.08 ± 0.54,10.17 ± 0.68,−0.04 ± 0.08,22 ± 4 nM,,
"C[C@@]12CC[C@@H]3[C@H](CC[C@@H]4C[C@@H](O)CC[C@]43C)[C@H]1CC(=CC#N)C2 [KK-138, 2-[(3β,5β,8α,9β,10α,13α,14β)-3-Hydroxyandrostan-16-ylidene]-acetonitrile]",162 to 172 °C,140 nM,870 nM,1.63 ± 0.23,5.87 ± 1.65,10.16 ± 3.18,0.14 ± 0.06,32 ± 3 nM,,
